Measurements as given in BigSolDB 2.1.

CCCCCCOC(=O)NC(=N)c1ccc(NCc2nc3cc(C(=O)N(CCC(=O)OCC)c4ccccn4)ccc3n2C)cc1.CS(=O)(=O)O
solubility (mole fraction)
Settings | 287.37 K | 292.2 K | 297.95 K | 303.97 K | 308.88 K | 313.59 K | 318.4 K | 323.39 K
in DMAc | 0.0228 | 0.0241 | 0.0264 | 0.0285 | 0.0311 | 0.0338 | 0.0372 | 0.0403
in DMF | 0.0217 | 0.0229 | 0.0246 | 0.0269 | 0.0294 | 0.0318 | 0.035 | 0.0385
in ethanol | 0.00092 | 0.00116 | 0.00153 | 0.00208 | 0.00267 | 0.00343 | 0.00458 | 0.00626
in ethylene glycol | 0.00425 | 0.00524 | 0.00619 | 0.00786 | 0.00961 | 0.0112 | 0.0143 | 0.0179
in methanol | 0.0158 | 0.018 | 0.0224 | 0.0274 | 0.0333 | 0.0389 | 0.0471 | 0.055
